According to article PMC6084929, “Differential effects of angiotensin II type I receptor blockers on reducing intraocular pressure and TGFβ signaling in the mouse retina” (PLoS ONE, 2018):

Assays:
[1] = test system: rat model with IOP elevation; set-up: method as in PMID 19608537; details: oral; cited from earlier work
[2] = test system: mouse model of normotensive glaucoma; set-up: method as in PMID 25032856; details: cited from earlier work
C57BL/6J mice [3] = assay: Systolic BP by tail-cuff method in ARB-treated mice; assay type: in vivo, mouse; details: 2 g drug/kg chow, day 3; p < 10^-4
Protocol: BP was measured by the tail-cuff method (BP 2000 Blood Pressure Analysis System, Visitech Systems, Apex, NC, USA) according to manufacturer recommendations and as previously described by an operator blinded to the treatment status of the mice. In brief, mice were restrained and their tail placed through an inflatable tail cuff held in place by adhesive tape. […] Mice were conditioned to the system prior to experimental measurements by being subjected to the full recording procedure daily for several days. Acclimation and BP measurements were performed between 9:00 and 11:00 a.m. Since diastolic measurements are inherently inaccurate with this method, only systolic BP is reported here. […] Sample sizes were not pre-determined by statistical methods, but are similar to or exceed numbers typical of similar experiments. The IOP changes of treated mice relative to the IOP changes of normal chow fed mice were presented with mean and 95% confidence interval based on t-statistics. A linear regression model for BP change from baseline was used to study effects of ARBs on BP, adjusting for baseline BP. For comparing IOP in groups of mice untreated or treated with ARBs for 3 and 7 days, a mixed effects model that included baseline IOP, left versus right eye, time of measurement and interaction between time and drug with random effects of intercept and slope within individual mice was used, adjusting for correlation between left and right eye within the same mouse, as well as repeated measurements over time. A one-way ANOVA was used for comparing chow pSmad2 fluorescence of mice untreated or treated with ARBs. The models for BP, IOP, and pSmad2 fluorescence were followed by Dunnett’s method for multiple comparisons correction. Differences in the change in IOP for each drug, relative to change in IOP of normal-fed control were evaluated at day 3 and day 7 of treatment, and differences in the rate of change in IOP were evaluated as the slope of the line defined by relative change at days 3 and 7. […]

C57BL/6J mice [4] = assay: IOP measurement with Tonolab rebound tonometer in ARB-treated mice; assay type: in vivo, mouse; details: for Change in IOP compared to normal chow control / Average reduction of the median IOP / Rate of IOP reduction compared to control: 2 g/kg in chow; for Change in IOP compared to normal chow control: after 3 and 7 days of treatment; for Average reduction of the median IOP: compared to day 0; for Rate of IOP reduction compared to control: slope between days 3 and 7; for Median IOP at day 0: before start of chow treatment, by treatment group
Protocol: IOP of mice anesthetized with 2.5% isoflurane in oxygen delivered at 1.5 L/min by an inhalation anesthesia system (Vet Equip, Livermore, CA, USA) was measured using a Tonolab rebound tonometer (Icare, Vantaa, Finland) following manufacturer’s recommendations by an operator blinded to the treatment status of the mice. Measurements were performed within 3 mins of immobilization to minimize isoflurane-induced IOP changes and at the same time of day (1:00–3:00 p.m.) to avoid diurnal variation.
Sample sizes were not pre-determined by statistical methods, but are similar to or exceed numbers typical of similar experiments. The IOP changes of treated mice relative to the IOP changes of normal chow fed mice were presented with mean and 95% confidence interval based on t-statistics. A linear regression model for BP change from baseline was used to study effects of ARBs on BP, adjusting for baseline BP. For comparing IOP in groups of mice untreated or treated with ARBs for 3 and 7 days, a mixed effects model that included baseline IOP, left versus right eye, time of measurement and interaction between time and drug with random effects of intercept and slope within individual mice was used, adjusting for correlation between left and right eye within the same mouse, as well as repeated measurements over time. A one-way ANOVA was used for comparing chow pSmad2 fluorescence of mice untreated or treated with ARBs. The models for BP, IOP, and pSmad2 fluorescence were followed by Dunnett’s method for multiple comparisons correction. Differences in the change in IOP for each drug, relative to change in IOP of normal-fed control were evaluated at day 3 and day 7 of treatment, and differences in the rate of change in IOP were evaluated as the slope of the line defined by relative change at days 3 and 7. Corrected p-values < 0.05 were considered significant. Linear regression and mixed effect model analysis was performed with R 3.4.1 (R Core Team. R: A language and environment for statistical computing. R Foundation for Statistical Computing, Vienna, Austria. URL http://www.R-project.org/, 2013). All other statistical analysis was performed using GraphPad Prism version 7.00 for Windows software (GraphPad Software, La Jolla, CA, USA).

[5] = Solubilization in unbuffered water; assay type: physicochemical; details: attempt to solubilize for drinking water delivery
AT1R = biological target: AT1R; set-up: method as in PMID 20603272; details: cited from earlier work
TGFβ signaling (pSmad2) = assay: pSmad2 immunohistochemistry of the retina (RGC layer) as read-out of TGFβ signaling; assay type: in vivo, mouse; details: 2 g/kg in chow, 7 days, 3 days
Protocol: Eyes were enucleated and post-fixed in PBS/PFA for an additional 24–48 h and embedded in paraffin. Five micron-thick sections were deparaffinized, incubated at 90°C for 30 mins in 10 mM sodium citrate buffer, pH 6.0 for epitope retrieval and then incubated for 2 h at room temperature in blocking solution (PBS/5% normal donkey serum/1% BSA/0.1% Tween-20). Sections were then incubated with rabbit polyclonal antibody to pSmad2 (1:100, Thermo Fisher Scientific, MA, USA) in blocking solution overnight at 4°C in a humidified chamber. Following three 5 min washes in wash solution (PBS/0.1% Tween-20), sections were incubated in AlexaFluor-546 labeled donkey anti-rabbit IgG diluted 1:1000 in blocking solution for 2 h at room temperature in a dark humidified chamber. Sections were washed again three times for 5 mins each in wash solution and cover-slipped with Prolong Gold Antifade with DAPI mounting medium (Thermo Fisher Scientific). Sections were imaged using a Nikon AZ 100M upright, wide-field microscope using a 5x Plan Fluor/0.5 NA air objective and captured with a Nikon DS-Ri1 color camera (Nikon Instruments, Melville, NY, USA). Retinal images were acquired adjacent to the optic nerve head. Immunostaining and imaging experiments using the right eye of each mouse were carried out in batches of sections that included samples from two vehicle-fed mice and two samples each from losartan, irbesartan and telmisartan-fed mice using identical image acquisition parameters within each batch. Immunostaining and imaging experiments were carried out twice for each batch of samples. Mean fluorescence intensity of pSmad2 immunofluorescence was quantified using FIJI (ImageJ) biological image analysis package. Background-subtracted mean fluorescence intensity of the RGC layer was determined by subtracting the mean background intensity within the adjacent inner plexiform layer from the mean fluorescence intensity within a mask drawn around the RGC layer. Normalized background-subtracted mean fluorescence intensity within each batch of samples was determined by dividing the background-subtracted mean fluorescence intensity of each sample by the average of the background-subtracted mean fluorescence intensities of the two vehicle-fed control samples. For each mouse, normalized background-subtracted mean fluorescence intensity was determined as the average of duplicate experiments and is presented as normalized mean fluorescence.

[6] = test system: rabbit eyes with induced IOP elevation; set-up: method as in PMID 10942157; details: eye drops of 0.1% losartan in saline; cited from earlier work
CD1 mice = details: cited from earlier work
[7] = test system: human glaucoma patients with elevated IOP, and normal controls; details: 50 mg oral dose; cited from earlier work
[8] = test system: monkeys with laser-induced IOP elevation; set-up: method as in PMID 15862169; details: cited from earlier work
[9] = test system: rabbits with experimental and inherited elevated IOP; set-up: method as in PMID 11840352; details: cited from earlier work
[10] = set-up: method as in PMID 23487168; details: cited from earlier work

| Structure (SMILES) | Systolic BP compared to mice fed normal chow (C57BL/6J mice [3]) | Change in IOP compared to normal chow control (C57BL/6J mice [4]) | Average reduction of the median IOP (C57BL/6J mice [4]) | Rate of IOP reduction compared to control (C57BL/6J mice [4]) | Median IOP at day 0 (C57BL/6J mice [4]) | Solubility in unbuffered water [5] | Kd (AT1R) | Effect on pSmad2 fluorescence of the RGC layer (TGFβ signaling (pSmad2)) | further results |
| --- | --- | --- | --- | --- | --- | --- | --- | --- | --- |
| CCOc1nc2cccc(C(=O)O)c2n1Cc1ccc(-c2ccccc2-c2nnn[nH]2)cc1 [candesartan] | – | – | – | – | – | – | – | – | Effect on IOP [1]: did not affect IOP; Effect on RGC loss [1]: reduced RGC loss; Effect on IOP ([2]; 10 mg/kg/day by oral gavage): no effect on IOP; Effect on RGCs and inner retina ([2]; orally administered): reduced loss of RGCs and thinning of the inner retina |
| CCCCC1=NC2(CCCC2)C(=O)N1Cc1ccc(-c2ccccc2-c2nnn[nH]2)cc1 [irbesartan] | significantly lower BP | significant decreases in IOP | 15.4% | significantly greater than control | 17.0 | readily precipitated out of solution | ~2 nM | no significant effect | – |
| CCCCc1nc(Cl)c(CO)n1Cc1ccc(-c2ccccc2-c2nn[nH]n2)cc1 [losartan, Losartan potassium] | significantly lower BP | did not significantly lower IOP | – | no significant effect | 16.9 | – | ~10 nM | no significant effect | IOP after losartan treatment (C57BL/6J mice [4]; 1.2 g/L losartan in drinking water, 3 days, 10 female C57BL/6 mice 1 year of age, right eye, mean +/-SD, p = 0.4): 15.4 +/- 1.9 mmHg; Effect on IOP (C57BL/6J mice [4]; 1.2 g/L losartan in drinking water, 3 days, normal mice): did not affect IOP; IOP before losartan treatment (baseline) (C57BL/6J mice [4]; 1.2 g/L losartan in drinking water, 10 female C57BL/6 mice 1 year of age, right eye, mean +/-SD): 14.8 +/-1.4 mmHg; Effect on IOP [6]: IOP-lowering effects; Effect on IOP (CD1 mice; 0.6 g/L in drinking water, normotensive eyes or eyes with microbead-induced elevated IOP): no effect on IOP; Effect on RGCs (CD1 mice; oral via drinking water, eyes with elevated IOP induced by microbead injection): neuroprotective effect for RGCs; Mean reduction of IOP [7]: ≤ 16% |
| CCCc1nc(C(C)(C)O)c(C(=O)O)n1Cc1ccc(-c2ccccc2-c2nnn[nH]2)cc1 [olmesartan] | – | – | – | – | – | – | – | – | Effect on IOP [8]: IOP-lowering effects; Effect on IOP [9]: IOP-lowering effects |
| CCCc1nc2c(C)cc(-c3nc4ccccc4n3C)cc2n1Cc1ccc(-c2ccccc2C(=O)O)cc1 [telmisartan] | significantly lower BP | significant decreases in IOP | 13.3% | significantly greater than control | 16.7 | readily precipitated out of solution | – | significantly reduced | Reduction of pSmad2 fluorescence in the RGC layer compared to normal fed mice (TGFβ signaling (pSmad2); p = 0.034): 70%; Lipophilicity [10]: most lipophilic ARB |
